Measured values: PubChem BioAssay AID1053140 (Broad Institute, 2014)
Activity calls are given as the source filed them.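 The calls were made as follows: active = cell killing, with AC50 under 10 µM and within twice the top valid dose; inactive = effect in the opposite direction, and the rest.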

test system: A549 viability, CellTiter-Glo ATP luminescence, 72 h; assay: viability loss in A549 lung cells – cell-based, ATP luminescence, dry powder, set 16, cytotoxicity control, dose response (AID 1053140); conditions: not given

SMILES	AC50
CO[C@H]1CN(C)C(=O)c2cc(Nc3c(NC4CCCC4)c(=O)c3=O)ccc2OC[C@H](C)N(Cc2ccc(-c3ccccn3)cc2)C[C@@H]1C	> 100 µM (inactive)
CO[C@H]1CN(C)C(=O)c2cc(Nc3ncccn3)ccc2OC[C@H](C)N(Cc2ccc(-c3ccccn3)cc2)C[C@@H]1C	> 100 µM (inactive)
CO[C@H]1CN(C)C(=O)c2cc(NC(=O)OC(C)C)ccc2OC[C@H](C)N(Cc2ccc(-c3ccccn3)cc2)C[C@@H]1C	> 100 µM (inactive)
CO[C@H]1CN(C)C(=O)c2cc(NC(=O)NC(C)C)ccc2OC[C@H](C)N(Cc2ccccn2)C[C@@H]1C	> 100 µM (inactive)
CO[C@H]1CN(C)C(=O)c2cc(NC(=O)NC(C)C)ccc2OC[C@H](C)N(Cc2ccc(-c3cccnc3)cc2)C[C@@H]1C	45.7 µM
CO[C@H]1CN(C)C(=O)c2cc(NC(=O)NC(C)C)ccc2OC[C@H](C)N(Cc2ccc(-c3cncnc3)cc2)C[C@@H]1C	> 100 µM (inactive)
CCC(CC)Nc1c(Nc2ccc3c(c2)C(=O)N(C)C[C@H](OC)[C@@H](C)CN(Cc2ccc(-c4ccccn4)cc2)[C@@H](C)CO3)c(=O)c1=O	43.7 µM
CO[C@H]1CN(C)C(=O)c2cc(Nc3c(NC4CCCCC4)c(=O)c3=O)ccc2OC[C@H](C)N(Cc2ccc(-c3ccccn3)cc2)C[C@@H]1C	36.8 µM
CO[C@H]1CN(C)C(=O)c2cc(Nc3c(NC4CC4)c(=O)c3=O)ccc2OC[C@H](C)N(Cc2ccc(-c3ccccn3)cc2)C[C@@H]1C	25.2 µM
CO[C@H]1CN(C)C(=O)c2cc(Nc3c(NC(C)C)c(=O)c3=O)ccc2OC[C@H](C)N(Cc2ccc(-c3ccccn3)cc2)C[C@@H]1C	45.3 µM
CO[C@H]1CN(C)C(=O)c2cc(N)ccc2OC[C@H](C)N(Cc2ccc(-c3ccccn3)cc2)C[C@@H]1C	> 100 µM (inactive)
CO[C@H]1CN(C)C(=O)c2cc(NC(=O)NC(C)C)ccc2OC[C@H](C)N(C(=O)Nc2ccc(-c3ccccn3)cc2)C[C@@H]1C	> 100 µM (inactive)
CO[C@H]1CN(C)C(=O)c2cc(NC(=O)C(C)C)ccc2OC[C@H](C)N(Cc2ccc(-c3ccccn3)cc2)C[C@@H]1C	> 100 µM (inactive)

test system: not listed separately; assay: as above; conditions: A549 viability, CellTiter-Glo ATP luminescence, 72 h; at 26 µM (top of the series)

SMILES	activity change, negative = cytotoxic
CCCC(=O)Nc1ccc2c(c1)OC[C@H](C)N(Cc1ccc(-c3ccccn3)cc1)C[C@H](C)[C@@H](OC)CN(C)C2=O	6.08% (inactive)
CCCNC(=O)Nc1ccc2c(c1)OC[C@H](C)N(Cc1ccc(-c3ccccn3)cc1)C[C@H](C)[C@@H](OC)CN(C)C2=O	-9.23% (inactive)
CCCNC(=O)Nc1ccc2c(c1)OC[C@H](C)N(Cc1ccccc1)C[C@H](C)[C@@H](OC)CN(C)C2=O	0.334% (inactive)
CO[C@H]1CN(C)C(=O)c2ccc(NC(=O)NC(C)C)cc2OC[C@H](C)N(Cc2ccc(-c3ccccn3)cc2)C[C@@H]1C	3.22% (inactive)
CCCC(=O)Nc1ccc2c(c1)OC[C@H](C)N(Cc1ccccc1)C[C@H](C)[C@@H](OC)CN(C)C2=O	-0.093% (inactive)
CO[C@H]1CN(C)C(=O)c2ccc(NC(=O)NC(C)C)cc2OC[C@H](C)N(Cc2ccccc2)C[C@@H]1C	4.59% (inactive)

same assay, conditions: A549 viability, CellTiter-Glo ATP luminescence, 72 h; at 50 µM (top of the series)

SMILES	activity change, negative = cytotoxic
CO[C@H]1CN(C)C(=O)c2cc(NC(=O)NC(C)C)ccc2OC[C@H](C)N(C(=O)c2ccc(-c3ccccn3)cc2)C[C@@H]1C	-11.3% (inactive)
CO[C@H]1CN(C)C(=O)c2cc(NC(=O)NC(C)C)ccc2OC[C@H](C)NC[C@@H]1C	-2.18% (inactive)
CO[C@H]1CN(C)C(=O)c2cc(NC(=O)NC(C)C)ccc2OC[C@H](C)N(Cc2ccc(F)cc2)C[C@@H]1C	-3.88% (inactive)
CO[C@H]1CN(C)C(=O)c2cc(NC(=O)NC(C)C)ccc2OC[C@H](C)N(C(=O)c2ccccc2)C[C@@H]1C	-11.4% (inactive)
CO[C@H]1CN(C)C(=O)c2cc(NC(=O)NC(C)C)ccc2OC[C@H](C)N(Cc2cccnc2)C[C@@H]1C	6.13% (inactive)
CO[C@H]1CN(C)C(=O)c2cc(NC(=O)NC(C)C)ccc2OC[C@H](C)N(Cc2ccncc2)C[C@@H]1C	4.36% (inactive)
CO[C@H]1CN(C)C(=O)c2cc(NC(=O)NC(C)C)ccc2OC[C@H](C)N(Cc2cncnc2)C[C@@H]1C	-6.71% (inactive)
